Results as given in publication PMC1448180, “Small-molecule and mutational analysis of allosteric Eg5 inhibition by monastrol” (BMC Chemical Biology, 2006).
Where a chain is given by its changes, count along the chain named.

How the values were obtained:
BimC = test system: BimC; set-up: method as in PMID 12525161; conditions: cited from earlier work
Xenopus Eg5 = test system: Xenopus Eg5; set-up: method as in PMID 10542155, PMID 10973989; conditions: cited from earlier work
human Eg5 = test system: human Eg5; set-up: method as in PMID 10542155, PMID 10973989; conditions: cited from earlier work
hEg5-367H (L214I) = biological target: T1, hEg5-367H (L214I) (Homo sapiens, UniProt P52732, L214I); experiment: ATP hydrolysis by Eg5 motor domain mutant L214I; type: biochemical; conditions: Figure 4B; legend: basal ATP hydrolysis; read-out: IC50(μM) of monastrol, (L214I)
T1 sequence (P52732 1-367 L214I): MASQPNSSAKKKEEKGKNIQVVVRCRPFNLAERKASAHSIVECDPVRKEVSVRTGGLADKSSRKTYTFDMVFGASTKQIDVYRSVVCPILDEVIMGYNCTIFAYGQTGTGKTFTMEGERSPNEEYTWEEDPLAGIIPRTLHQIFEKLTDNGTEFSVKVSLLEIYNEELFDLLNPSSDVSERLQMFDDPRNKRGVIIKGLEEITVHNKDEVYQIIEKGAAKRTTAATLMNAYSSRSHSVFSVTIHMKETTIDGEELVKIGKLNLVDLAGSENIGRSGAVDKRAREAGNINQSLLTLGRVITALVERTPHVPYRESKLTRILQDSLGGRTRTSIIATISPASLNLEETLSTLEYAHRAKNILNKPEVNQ
Excerpt: (§1) Figure 4 Mutagenesis of the monastrol binding site in human Eg5. (A) Design of mutations in the human Eg5 motor domain. Amino acid side chains that are not conserved between Eg5 and conventional kinesin were targeted, either introducing chimeric or rationally designed mutations (asterix for targeted point mutants) to test the contribution of residues to the drug-sensitivity of Eg5. (B) Steady-state enzymatic parameters for engineered human Eg5 motor domain mutants. Steady-state ATP hydrolysis by Eg5 was measured using an NADH-enzyme coupled assay varying the concentration of ATP, microtubules, or monastrol to obtain the microtubule concentration for half-maximal stimulation (K0.5MT), the maximal rate of microtubule-stimulated ATP hydrolysis (kcat), and the concentration of monastrol that inhibits basal ATP hydrolysis by 50 % (IC50), as described.
(§2) We used a modified PCR mutagenesis protocol to introduce mutations into hEg5-367H, a plasmid encoding the C-terminally His6-tagged motor domain (amino acid residues 1–367) of human Eg5. […]
(§3) ATP hydrolysis by recombinantly expressed kinesin motor domains was measured using an NADH-enzyme coupled assay. ATP hydrolysis was measured in KC25 buffer supplemented with 5 μM taxol, 1 mM ATP-KOH (pH 7.0), the appropriate concentration of motor domain, and the appropriate concentrations of taxol-polymerized microtubules.

hEg5-367H (R119L) = biological target: T2, hEg5-367H (R119L) (Homo sapiens, UniProt P52732, R119L); experiment: ATP hydrolysis by Eg5 motor domain mutant R119L; type: biochemical; conditions: Figure 4B; legend: basal ATP hydrolysis; read-out: IC50(μM) of monastrol, (R119L)
T2 sequence (P52732 1-367 R119L): T1 sequence (P52732 1-367 L214I) with R119L, I214L
Excerpt: as §1, §2, §3

CCOC(=O)C1=C(C)NC(=S)NC1c1cccc(O)c1 (centres unmarked) [Monastrol]
Inhibition of BimC (BimC): not | Inhibition of Xenopus Eg5 (Xenopus Eg5): inhibit | Inhibition of human Eg5 (human Eg5): inhibit | IC50 (hEg5-367H (L214I)): 63 ± 7 µM | IC50 (hEg5-367H (R119L)): 17 ± 2 µM
